Assay results reported in patent publication US20260021095A1, “BIFUNCTIONAL COMPOUNDS CONTAINING PYRIDO[2,3-d]PYRIMIDIN-7(8H)-ONE DERIVATIVES FOR DEGRADING CYCLIN-DEPENDENT KINASE 2 VIA UBIQUITIN PROTEASOME PATHWAY” (NIKANG THERAPEUTICS, INC., priority 2022, published 2026).

Columns and labels:
CDK2 [1] = molecular target: T1, CDK2 (Homo sapiens, UniProt P24941); test: Inhibition of CDK2: phospho-Rb (S807/811) HTRF measurement in OVCAR3 cells; assay type: cell-based; settings: 24 h compound treatment, HTRF phospho-RB S807/811, read-out: pRb OVCAR3 (μM), CDK2 IC50 in pRB(S807/811) assay
T1 construct: High-Throughput Measurement of Cellular Endogenous CDK2; endogenous in cells; host or cells: OVCAR3
Protocol: Phosphorylation of RB protein at S807/811 were measured using HTRF phospho-RB cellular kits (Cat #64RBS807PEG) from Cisbio.
On Day 1, OVCAR3 (CDK2 dependent cell line) cells were seeded into 96-well tissue-culture treated plates at 20,000 cells/well in 200 μL and incubated overnight at 37° C. in CO2 atmosphere. On Day 2, the cells were treated with test compounds at concentrations from 0.3 to 10,000 nM using HP D300 digital dispenser. Twenty-four hours after compound treatment, cell culture media was removed by flicking the plate and tapping the plate against clean paper towel. Immediately 30 μL 1× lysis buffer was supplemented from the kit and the plate was incubated at room temperature on shaker for 30 min. After homogenization by pipetting up and down, 8 μL cell lysate from 96-well cell culture plate was transferred to 384-well small volume white detection plate. 2 μL premixed detection solution was added and the plate was covered with sealer. […] Detection plates were incubated for 4 h at room temperature and read on ClarioStar (BMG Labtech) in TR-FRET mode ([…]). […] Half maximal inhibition concentration (IC50) values are calculated with a four-parameter logistic fit using GraphPad Prism (version 8; La Jolla, CA). […]

CDK2 [2] = molecular target: T1, CDK2; test: High-throughput HTRF measurement of cellular endogenous CDK2 (degradation) in OVCAR3 cells; assay type: cell-based; settings: HTRF total CDK2, read-out: DC50 OVCAR3_6 h
Protocol: Effects of compounds on cellular CDK2 level can be monitored by a high-throughput HTRF assay.
To determine half maximal degradation concentration (DC50) values of compounds, cellular CDK2 level was measured in 96-well format using HTRF total CDK2 cellular kit (Cat #64CDK2TPEG) from Cisbio.
On Day 1, OVCAR3 cells were seeded into 96-well tissue-culture treated plates at 20,000 cells/well in 200 μL and incubated overnight at 37° C. in C02 atmosphere. On Day 2 cells were treated with compounds at concentration ranging from 0.3 to 10,000 nM using HP D300 digital dispenser. […] Immediately 30 μL 1× lysis buffer was supplemented from the kit and the plate was incubated at room temperature on shaker for 30 min. After homogenization by pipetting up and down, 8 μL cell lysate from 96-well cell culture plate was transferred to 384-well small volume white detection plate. 2 μL premixed detection solution was added and the plate was covered with sealer. […] Detection plates were incubated overnight at room temperature and read on ClarioStar (BMG Labtech) in TR-FRET mode (665 nM and 620 nM). […] Half maximal degradation concentration (DC50) values were calculated with a four-parameter logistic fit using GraphPad Prism (version 8; La Jolla, CA).

Row | IC50 (CDK2 [1]) [µM] | DC50 (CDK2 [2]) [nM] | Structure (SMILES)
1 | 0.1 to 1 | 41.9 | Cn1nc(N2CCC(=O)NC2=O)c2ccc(C3CCN(Cc4cccc(S(=O)(=O)N5CC[C@H](Nc6ncc7ccc(=O)n(C)c7n6)[C@H](F)C5)c4)CC3)cc21 (racemic) [compound 1, Rac-1-(6-(1-(3-(((3R,4S)-3-fluoro-4-((8-methyl-7-oxo-7,8-dihydropyrido[2,3-d]pyrimidin-2-yl)amino)piperidin-1-yl)sulfonyl)benzyl)-piperidin-4-yl)-1-methyl-1H-indazol-3-yl)-dihydropyrimidine-2,4(1H,3H)-dione]
2 | 1 to 10 | 1310 | Cn1nc(N2CCC(=O)NC2=O)c2ccc(C3CCN(Cc4cccc(S(=O)(=O)N5CC[C@H](Nc6ncc7ccc(=O)n(CC(F)(F)F)c7n6)[C@H](F)C5)c4)CC3)cc21 (racemic) [compound 2, Rac-1-(6-(1-(3-(((3R,4S)-3-fluoro-4-((7-oxo-8-(2,2,2-trifluoroethyl)-7,8-dihydropyrido[2,3-d]pyrimidin-2-yl)amino)piperidin-1-yl)-sulfonyl)benzyl)piperidin-4-yl)-1-methyl-1H-indazol-3-yl)dihydropyrimidine-2,4(1H,3H)-dione]
